Test results from PMC11593036, “Comparative Characterization of Three Homologous Glutathione Transferases from the Weed Lolium perenne” (Foods, 2024).
Substitutions are numbered along the chain they refer to.

Tests used:
Assay in all cases: steady-state kinetics
Format in all cases: biochemical
[1] = biological target: T1, LpGSTU2 (Lolium perenne, UniProt A0A165FYT0); details: co-substrate GSH; read-out: Km (mM) (CDNB)
T1 construct: gene GST; full-length cDNA from leaf mRNA in pEXP5-CT/TOPO, E. coli BL21(DE3), GSH-Sepharose; reverse primer carries stop codon (no C-terminal tag); primer-encoded N-terminus MASEKSS
T1 sequence (A0A165FYT0 1-226): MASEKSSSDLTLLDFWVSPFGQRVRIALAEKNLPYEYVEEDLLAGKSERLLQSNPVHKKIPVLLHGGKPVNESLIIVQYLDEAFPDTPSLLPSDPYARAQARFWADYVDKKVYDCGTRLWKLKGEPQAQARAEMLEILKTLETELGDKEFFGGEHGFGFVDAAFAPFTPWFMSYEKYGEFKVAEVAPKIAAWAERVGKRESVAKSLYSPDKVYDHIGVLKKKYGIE
From the text: steady-state kinetics on LpGSTU2

[2] = biological target: T2, LpGSTU25 (Lolium perenne, UniProt A0A165FYR3, F215R); details: co-substrate GSH; read-out: Km (mM) (CDNB)
T2 construct: gene GST; full-length cDNA from leaf mRNA in pEXP5-CT/TOPO, E. coli BL21(DE3), GSH-Sepharose; reverse primer carries stop codon (no C-terminal tag); primer-encoded N-terminus MASEKSS
T2 sequence (A0A165FYR3 1-226 F215R): T1 sequence (A0A165FYT0 1-226) with N32S, E48D, V56A, S93A, T117S, L122F, R131K, H215R, K221Q
From the text: (§1) steady-state kinetics on LpGSTU25

[3] = biological target: T3, LpGSTU25 (Lolium perenne, UniProt A0A165FYR3, F215V); details: co-substrate GSH; read-out: Km (mM) (CDNB)
T3 construct: gene GST; full-length cDNA from leaf mRNA in pEXP5-CT/TOPO, E. coli BL21(DE3), GSH-Sepharose; reverse primer carries stop codon (no C-terminal tag); primer-encoded N-terminus MASEKSS
T3 sequence (A0A165FYR3 1-226 F215V): T1 sequence (A0A165FYT0 1-226) with N32S, E48D, V56A, S93A, T117S, L122F, R131K, H215V, K221Q
From the text: as §1

[4] = biological target: T4, LpGSTU25 (Lolium perenne, UniProt A0A165FYR3, F215S); details: co-substrate GSH; read-out: Km (mM) (CDNB)
T4 construct: gene GST; full-length cDNA from leaf mRNA in pEXP5-CT/TOPO, E. coli BL21(DE3), GSH-Sepharose; reverse primer carries stop codon (no C-terminal tag); primer-encoded N-terminus MASEKSS
T4 sequence (A0A165FYR3 1-226 F215S): T1 sequence (A0A165FYT0 1-226) with N32S, E48D, V56A, S93A, T117S, L122F, R131K, H215S, K221Q
From the text: as §1

[5] = biological target: T5, LpGSTU25 (Lolium perenne, UniProt A0A165FYR3, F215H); details: co-substrate GSH; read-out: Km (mM) (CDNB)
T5 construct: gene GST; full-length cDNA from leaf mRNA in pEXP5-CT/TOPO, E. coli BL21(DE3), GSH-Sepharose; reverse primer carries stop codon (no C-terminal tag); primer-encoded N-terminus MASEKSS
T5 sequence (A0A165FYR3 1-226 F215H): T1 sequence (A0A165FYT0 1-226) with N32S, E48D, V56A, S93A, T117S, L122F, R131K, K221Q
From the text: as §1

[6] = biological target: T6, LpGSTU25 (Lolium perenne, UniProt A0A165FYR3, F215T); details: co-substrate GSH; read-out: Km (mM) (CDNB)
T6 construct: gene GST; full-length cDNA from leaf mRNA in pEXP5-CT/TOPO, E. coli BL21(DE3), GSH-Sepharose; reverse primer carries stop codon (no C-terminal tag); primer-encoded N-terminus MASEKSS
T6 sequence (A0A165FYR3 1-226 F215T): T1 sequence (A0A165FYT0 1-226) with N32S, E48D, V56A, S93A, T117S, L122F, R131K, H215T, K221Q
From the text: as §1

[7] = biological target: T7, LpGSTU25 (Lolium perenne, UniProt A0A165FYR3, F215L); details: co-substrate GSH; read-out: Km (mM) (CDNB)
T7 construct: gene GST; full-length cDNA from leaf mRNA in pEXP5-CT/TOPO, E. coli BL21(DE3), GSH-Sepharose; reverse primer carries stop codon (no C-terminal tag); primer-encoded N-terminus MASEKSS
T7 sequence (A0A165FYR3 1-226 F215L): T1 sequence (A0A165FYT0 1-226) with N32S, E48D, V56A, S93A, T117S, L122F, R131K, H215L, K221Q
From the text: as §1

[8] = biological target: T8, LpGSTU25 (Lolium perenne, UniProt A0A165FYR3); details: co-substrate GSH; read-out: Km (mM) (CDNB)
T8 construct: gene GST; full-length cDNA from leaf mRNA in pEXP5-CT/TOPO, E. coli BL21(DE3), GSH-Sepharose; reverse primer carries stop codon (no C-terminal tag); primer-encoded N-terminus MASEKSS
T8 sequence (A0A165FYR3 1-226): T1 sequence (A0A165FYT0 1-226) with N32S, E48D, V56A, S93A, T117S, L122F, R131K, H215F, K221Q
From the text: as §1

[9] = biological target: T9, LpGSTU25 (Lolium perenne, UniProt A0A165FYR3, F215K); details: co-substrate GSH; read-out: Km (mM) (CDNB)
T9 construct: gene GST; full-length cDNA from leaf mRNA in pEXP5-CT/TOPO, E. coli BL21(DE3), GSH-Sepharose; reverse primer carries stop codon (no C-terminal tag); primer-encoded N-terminus MASEKSS
T9 sequence (A0A165FYR3 1-226 F215K): T1 sequence (A0A165FYT0 1-226) with N32S, E48D, V56A, S93A, T117S, L122F, R131K, H215K, K221Q
From the text: as §1

[10] = biological target: T10, LpGSTU25 (Lolium perenne, UniProt A0A165FYR3, F215Y); details: co-substrate GSH; read-out: Km (mM) (CDNB)
T10 construct: gene GST; full-length cDNA from leaf mRNA in pEXP5-CT/TOPO, E. coli BL21(DE3), GSH-Sepharose; reverse primer carries stop codon (no C-terminal tag); primer-encoded N-terminus MASEKSS
T10 sequence (A0A165FYR3 1-226 F215Y): T1 sequence (A0A165FYT0 1-226) with N32S, E48D, V56A, S93A, T117S, L122F, R131K, H215Y, K221Q
From the text: as §1

[11] = biological target: T11, LpGSTU5 (Lolium perenne, UniProt A0A165FYU2); details: co-substrate GSH; sigmoid, positive cooperativity between the two H-sites; read-out: Km (mM) (CDNB)
T11 construct: gene GST; full-length cDNA from leaf mRNA in pEXP5-CT/TOPO, E. coli BL21(DE3), GSH-Sepharose; reverse primer carries stop codon (no C-terminal tag); primer-encoded N-terminus MASEKSS
T11 sequence (A0A165FYU2 1-226): T1 sequence (A0A165FYT0 1-226) with N32S, E48D, S93A, T117S
From the text: steady-state kinetics on LpGSTU5

Q: Which results are given for `O=[N+]([O-])c1ccc(Cl)c([N+](=O)[O-])c1` [CDNB]?
A: Km [1]: 0.47 ± 0.03 mM; Km [2]: 0.92 ± 0.32 mM; Km [3]: 0.29 ± 0.02 mM; Km [4]: 0.33 ± 0.03 mM; Km [5]: 0.68 ± 0.08 mM; Km [6]: 0.31 ± 0.03 mM; Km [7]: 0.25 ± 0.02 mM; Km [8]: 0.28 ± 0.03 mM; Km [9]: 0.77 ± 0.07 mM; Km [10]: 0.91 ± 0.12 mM; Km [11]: 0.1 ± 0.04 mM
